Measurements published in ChEMBL document CHEMBL3885881, “DrugMatrix”.

Organism: Rattus norvegicus
Test: DrugMatrix - Regimen: Daily Repeat
Assay type: toxicity, organism-based, Sprague-Dawley
Parameters: regimen Daily Repeat, gender Male, age 6-8 weeks
Conditions: in vivo, po, route oral GAVAGE, vehicle .5 % CMC; for BASOPHIL / EOSINOPHIL / ERYTHROCYTE COUNT / HEMATOCRIT / HEMOGLOBIN / LEUKOCYTE COUNT / LYMPHOCYTE / MEAN CORPUSCULAR HEMOGLOBIN / MEAN CORPUSCULAR HEMOGLOBIN CONCENTRATION / MEAN CORPUSCULAR VOLUME / MONOCYTE / NEUTROPHIL / PLATELET COUNT: tissue Blood; for ALANINE AMINOTRANSFERASE / ALBUMIN / ALKALINE PHOSPHATASE / ASPARTATE AMINOTRANSFERASE / BLOOD UREA NITROGEN / CHLORIDE / CHOLESTEROL / CREATINE PHOSPHOKINASE / CREATININE / GLUCOSE / PHOSPHORUS / POTASSIUM / SODIUM / TOTAL BILIRUBIN / TOTAL PROTEIN: tissue Plasma
[1] = 0 mg/kg, 72 h, dose level Control, time 3 day
[2] = 0 mg/kg, 120 h, dose level Control, time 5 day
[3] = 25 mg/kg, 72 h, dose level Low, time 3 day
[4] = 25 mg/kg, 120 h, dose level Low, time 5 day

With `C[C@]12CCC(=O)C=C1CC[C@@H]1[C@@H]2C(=O)C[C@@]2(C)[C@H]1CC[C@]2(O)C(=O)CO` [CORTISONE] the BASOPHIL [1] was 1.52%, the EOSINOPHIL [1] was 0.98% and the “ERYTHROCYTE COUNT” value [1] was 6.96 x10E6/uL. The HEMATOCRIT [1] was 44.65%, the HEMOGLOBIN [1] was 13.62 G/DL and the “LEUKOCYTE COUNT” value [1] was 9.83 x10E3/uL. The LYMPHOCYTE [1] was 76.48%, the “MEAN CORPUSCULAR HEMOGLOBIN” value [1] was 19.57 pg and the “MEAN CORPUSCULAR HEMOGLOBIN CONCENTRATION” value [1] was 30.47 G/DL. For the same compound, the “MEAN CORPUSCULAR VOLUME” value [1] was 64.22 fL, the MONOCYTE [1] was 2.13% and the NEUTROPHIL [1] was 18.6%. The “PLATELET COUNT” value [1] was 1217.17 x10E3/uL, the “ALANINE AMINOTRANSFERASE” value [1] was 41 u/L and the ALBUMIN [1] was 3.77 G/DL. For the same compound, the “ALKALINE PHOSPHATASE” value [1] was 411.83 u/L, the “ASPARTATE AMINOTRANSFERASE” value [1] was 62.83 u/L and the “BLOOD UREA NITROGEN” value [1] was 15.17 mg/dL. For the same compound, the CHLORIDE [1] was 104.33 MEQ/L, the CHOLESTEROL [1] was 71.17 mg/dL and the “CREATINE PHOSPHOKINASE” value [1] was 123.5 u/L. It also gave a CREATININE [1] of 0.55 mg/dL, a GLUCOSE [1] of 182.67 mg/dL and a PHOSPHORUS [1] of 11.23 mg/dL. The POTASSIUM [1] was 7.03 MEQ/L, the SODIUM [1] was 148 MEQ/L and the “TOTAL BILIRUBIN” value [1] was 0.57 mg/dL. For the same compound, the “TOTAL PROTEIN” value [1] was 6.85 G/DL, the BASOPHIL [2] was 1.35% and the EOSINOPHIL [2] was 0.43%. The “ERYTHROCYTE COUNT” value [2] was 6.96 x10E6/uL, the HEMATOCRIT [2] was 44.35% and the HEMOGLOBIN [2] was 13.98 G/DL. For the same compound, the “LEUKOCYTE COUNT” value [2] was 9.45 x10E3/uL, the LYMPHOCYTE [2] was 80.83% and the “MEAN CORPUSCULAR HEMOGLOBIN” value [2] was 20.1 pg. For the same compound, the “MEAN CORPUSCULAR HEMOGLOBIN CONCENTRATION” value [2] was 31.52 G/DL, the “MEAN CORPUSCULAR VOLUME” value [2] was 63.72 fL and the MONOCYTE [2] was 2.37%. For the same compound, the NEUTROPHIL [2] was 14.05%, the “PLATELET COUNT” value [2] was 1298 x10E3/uL and the “ALANINE AMINOTRANSFERASE” value [2] was 42.17 u/L. For the same compound, the ALBUMIN [2] was 3.77 G/DL, the “ALKALINE PHOSPHATASE” value [2] was 419 u/L and the “ASPARTATE AMINOTRANSFERASE” value [2] was 66.67 u/L. For the same compound, the “BLOOD UREA NITROGEN” value [2] was 16.67 mg/dL, the CHLORIDE [2] was 103.17 MEQ/L and the CHOLESTEROL [2] was 66.33 mg/dL. For the same compound, the “CREATINE PHOSPHOKINASE” value [2] was 148.33 u/L, the CREATININE [2] was 0.58 mg/dL and the GLUCOSE [2] was 196.83 mg/dL. For the same compound, the PHOSPHORUS [2] was 11.8 mg/dL, the POTASSIUM [2] was 6.47 MEQ/L and the SODIUM [2] was 148.33 MEQ/L. For the same compound, the “TOTAL BILIRUBIN” value [2] was 0.53 mg/dL, the “TOTAL PROTEIN” value [2] was 6.77 G/DL and the BASOPHIL [3] was 2.4%. The EOSINOPHIL [3] was 0.4%, the “ERYTHROCYTE COUNT” value [3] was 6.64 x10E6/uL and the HEMATOCRIT [3] was 45.5%. For the same compound, the HEMOGLOBIN [3] was 13.9 G/DL, the “LEUKOCYTE COUNT” value [3] was 7.9 x10E3/uL and the LYMPHOCYTE [3] was 78.6%. For the same compound, the “MEAN CORPUSCULAR HEMOGLOBIN” value [3] was 21 pg, the “MEAN CORPUSCULAR HEMOGLOBIN CONCENTRATION” value [3] was 30.6 G/DL and the “MEAN CORPUSCULAR VOLUME” value [3] was 68.5 fL. For the same compound, the MONOCYTE [3] was 2.95%, the NEUTROPHIL [3] was 15.4% and the “PLATELET COUNT” value [3] was 1648.5 x10E3/uL. For the same compound, the “ALANINE AMINOTRANSFERASE” value [3] was 43 u/L, the ALBUMIN [3] was 3.8 G/DL and the “ALKALINE PHOSPHATASE” value [3] was 401 u/L. For the same compound, the “ASPARTATE AMINOTRANSFERASE” value [3] was 68.67 u/L, the “BLOOD UREA NITROGEN” value [3] was 12 mg/dL and the CHLORIDE [3] was 103.67 MEQ/L. For the same compound, the CHOLESTEROL [3] was 62.67 mg/dL, the “CREATINE PHOSPHOKINASE” value [3] was 120.67 u/L and the CREATININE [3] was 0.53 mg/dL. The GLUCOSE [3] was 178.33 mg/dL, the PHOSPHORUS [3] was 12.83 mg/dL and the POTASSIUM [3] was 6.87 MEQ/L. For the same compound, the SODIUM [3] was 149 MEQ/L, the “TOTAL BILIRUBIN” value [3] was 0.47 mg/dL and the “TOTAL PROTEIN” value [3] was 6.63 G/DL. The BASOPHIL [4] was 1.53%, the EOSINOPHIL [4] was 0.33% and the “ERYTHROCYTE COUNT” value [4] was 7.03 x10E6/uL. For the same compound, the HEMATOCRIT [4] was 45.13%, the HEMOGLOBIN [4] was 14.27 G/DL and the “LEUKOCYTE COUNT” value [4] was 9 x10E3/uL. The LYMPHOCYTE [4] was 77.9%, the “MEAN CORPUSCULAR HEMOGLOBIN” value [4] was 20.33 pg and the “MEAN CORPUSCULAR HEMOGLOBIN CONCENTRATION” value [4] was 31.67 G/DL. For the same compound, the “MEAN CORPUSCULAR VOLUME” value [4] was 64.27 fL, the MONOCYTE [4] was 2.7% and the NEUTROPHIL [4] was 16.73%. The “PLATELET COUNT” value [4] was 1381.67 x10E3/uL, the “ALANINE AMINOTRANSFERASE” value [4] was 45 u/L and the ALBUMIN [4] was 3.7 G/DL. The “ALKALINE PHOSPHATASE” value [4] was 435 u/L, the “ASPARTATE AMINOTRANSFERASE” value [4] was 68.33 u/L and the “BLOOD UREA NITROGEN” value [4] was 15.33 mg/dL. The CHLORIDE [4] was 103 MEQ/L, the CHOLESTEROL [4] was 54 mg/dL and the “CREATINE PHOSPHOKINASE” value [4] was 128.67 u/L. For the same compound, the CREATININE [4] was 0.5 mg/dL, the GLUCOSE [4] was 186 mg/dL and the PHOSPHORUS [4] was 12.57 mg/dL. The POTASSIUM [4] was 6.6 MEQ/L, the SODIUM [4] was 148 MEQ/L and the “TOTAL BILIRUBIN” value [4] was 0.47 mg/dL. For the same compound, the “TOTAL PROTEIN” value [4] was 6.6 G/DL.
